Test results published in ChEMBL document CHEMBL5346906, “Discovery of novel tranylcypromine-based derivatives as LSD1 inhibitors for gastric cancer treatment” (Eur J Med Chem, 2023).
Calls of active or inactive are those of the source. No cut-off for these calls is given here.

Key:
MGC-803 [1] = assay: Antiproliferative activity against human MGC-803 cells assessed as reduction in stemness of cells by measuring tumor ball diameter at 0 to 8 uM after 48 hrs measured after 10 days using 3D-spheroid assay; format: functional, cell-based; conditions: dose 0-8 µM
MGC-803 [2] = assay: Induction of apoptosis in human MGC-803 cells assessed as morphological change in cell nucleus incubated at 8 to 24 micromol/L for 48 hrs measured by DAPI staining analysis; format: functional, cell-based; conditions: dose 8-24 µmol/L
MGC-803 [3] = assay: Induction of apoptosis in human MGC-803 cells assessed as necrotic cells at 16 micromol/L for 48 hrs by annexinV-FITC/PI staining based flow cytometric analysis (reference value: 0.22%); format: functional; conditions: dose 16 µmol/L, at 16 µM
MGC-803 [4] = assay: Inhibition of cell migration in human MGC-803 cells assessed as scratch width decrease treated at 2 to 6 micromol/L for 24 to 48 hrs measured by wound healing assay; format: functional, cell-based; conditions: dose 2-6 µmol/L, time 24-48 hrs
MGC-803 [5] = assay: Induction of apoptosis in human MGC-803 cells assessed as decrease in anti-apoptotic c-IAP1 expression at 8 to 24 micromol/L; format: functional, cell-based; conditions: dose 8-24 µmol/L
MGC-803 [6] = assay: Induction of apoptosis in human MGC-803 cells assessed as morphological change in cell nucleus incubated at 8 to 24 micromol/L for 48 hrs measured by Giemsa staining based microscopic analysis; format: functional; conditions: dose 8-24 µmol/L
MGC-803 [7] = assay: Induction of apoptosis in human MGC-803 cells assessed as early apoptotic cells at 24 micromol/L for 48 hrs by annexinV-FITC/PI staining based flow cytometric analysis (reference value: 2.92%); format: functional; conditions: dose 24 µmol/L, at 24 µM
MGC-803 [8] = assay: Induction of apoptosis in human MGC-803 cells assessed as viable cells at 8 micromol/L for 48 hrs by annexinV-FITC/PI staining based flow cytometric analysis (reference value: 95.54%); format: functional; conditions: MGC-803, 48 h, dose 8 µmol/L, read-out: Activity
[9] = biological target: T1, Lysine-specific histone demethylase 1A (Homo sapiens, UniProt O60341); assay: Inhibition of LSD1 in human MGC-803 cells assessed as increase in dimethylation of H3K4; format: cell-based; conditions: dose 0-24 µmol/L
MGC-803 [10] = assay: Induction of cell differentiation in human MGC-803 cells assessed as increase in CD86 level at 8 micromol/L incubated for 48 hrs by flow cytometric analysis (reference value: 60%); format: functional; conditions: dose 8 µmol/L, at 8 µM
[11] = biological target: T2, Amine oxidase [flavin-containing] B (Homo sapiens, UniProt P27338); assay: Inhibition of MAO-B (unknown origin) measured by MAO-GloTM method
T2 sequence (P27338 whole entry): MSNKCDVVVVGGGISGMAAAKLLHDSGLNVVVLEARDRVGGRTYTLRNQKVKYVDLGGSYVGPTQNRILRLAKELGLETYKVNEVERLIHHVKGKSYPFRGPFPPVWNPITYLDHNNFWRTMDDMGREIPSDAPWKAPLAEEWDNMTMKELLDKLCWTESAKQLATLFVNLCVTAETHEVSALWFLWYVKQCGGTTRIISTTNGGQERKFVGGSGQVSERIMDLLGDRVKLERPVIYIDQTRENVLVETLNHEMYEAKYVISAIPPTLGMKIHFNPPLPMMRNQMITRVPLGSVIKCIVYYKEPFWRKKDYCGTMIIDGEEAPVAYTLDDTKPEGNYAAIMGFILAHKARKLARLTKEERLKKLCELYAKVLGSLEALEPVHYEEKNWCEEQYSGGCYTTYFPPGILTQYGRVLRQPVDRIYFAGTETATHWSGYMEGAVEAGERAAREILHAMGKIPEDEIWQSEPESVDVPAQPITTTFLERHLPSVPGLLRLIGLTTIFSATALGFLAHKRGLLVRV

MGC-803 [12] = assay: Antiproliferative activity against human MGC-803 cells assessed as reduction in stemness of cells by measuring tumor ball diameter at 0 to 8 uM after 48 hrs measured after 5 days using 3D-spheroid assay; format: functional, cell-based; conditions: dose 0-8 µM
MGC-803 [13] = assay: Induction of apoptosis in human MGC-803 cells assessed as necrotic cells at 8 micromol/L for 48 hrs by annexinV-FITC/PI staining based flow cytometric analysis (reference value: 0.22%); format: functional; conditions: dose 8 µmol/L, at 8 µM
MGC-803 [14] = assay: Induction of apoptosis in human MGC-803 cells assessed as early apoptotic cells at 16 micromol/L for 48 hrs by annexinV-FITC/PI staining based flow cytometric analysis (reference value: 2.92%); format: functional; conditions: dose 16 µmol/L, at 16 µM
MGC-803 [15] = assay: Induction of apoptosis in human MGC-803 cells assessed as viable cells at 24 micromol/L for 48 hrs by annexinV-FITC/PI staining based flow cytometric analysis (reference value: 95.54%); format: functional; conditions: MGC-803, 48 h, dose 24 µmol/L, read-out: Activity
[16] = biological target: T1, Lysine-specific histone demethylase 1A; assay: Binding affinity to LSD1 in human MGC-803 cells assessed as thermal solubility measured at 100 uM preincubated for 30 mins and incubated at 42 to 60 degreeC for 3 mins followed by cooled for 180 secs cycle repeated 3 times by CETSA based Western blotting analysis; format: cell-based; conditions: time 48.0 min
MGC-803 [17] = assay: Induction of cell differentiation in human MGC-803 cells assessed as decrease in nucleoplasmic ratio of cells incubated for 6 days measured by Giemsa staining method; format: functional, cell-based; conditions: dose 2-4 µmol/L, time 6.0 day
MGC-803 [18] = assay: Induction of mitochondrial membrane potential depolarization in human MGC-803 assessed as necrotic cells measured at 8 micromol/L for 20 mins by JC-1 staining based flow cytometric analysis (reference value: 0.00%); format: functional; conditions: dose 8 µmol/L, at 8 µM
MGC-803 [19] = assay: Induction of apoptosis in human MGC-803 cells assessed as cell death incubated at 8 to 24 micromol/L for 48 hrs measured by Calcein-AM/PI staining analysis; format: functional, cell-based; conditions: dose 8-24 µmol/L
MGC-803 [20] = assay: Induction of apoptosis in human MGC-803 cells assessed as viable cells at 16 micromol/L for 48 hrs by annexinV-FITC/PI staining based flow cytometric analysis (reference value: 95.54%); format: functional; conditions: MGC-803, 48 h, dose 16 µmol/L, read-out: Activity
MGC-803 [21] = assay: Induction of cell differentiation in human MGC-803 cells assessed as increase in CD86 level at 16 micromol/L incubated for 48 hrs by flow cytometric analysis (reference value: 60%); format: functional; conditions: dose 16 µmol/L, at 16 µM
MGC-803 [22] = assay: Induction of mitochondrial membrane potential depolarization in human MGC-803 assessed as viable cells measured at 24 micromol/L for 20 mins by JC-1 staining based flow cytometric analysis (reference value: 0.40%); format: functional; conditions: MGC-803, 20 min, dose 24 µmol/L, read-out: Activity
[23] = biological target: T1, Lysine-specific histone demethylase 1A; assay: Inhibition of LSD1 in human MGC-803 cells assessed as increase in mono methylation of H3K9; format: cell-based; conditions: dose 0-24 µmol/L
HCT-116 = assay: Antiproliferative activity against human HCT-116 cells incubated for 48 hrs measured by MTT assay; format: functional, cell-based; conditions: HCT-116, 48 h
MGC-803 [24] = assay: Induction of cell differentiation in human MGC-803 cells assessed as increase in CD86 level at 24 micromol/L incubated for 48 hrs by flow cytometric analysis (reference value: 60%); format: functional; conditions: dose 24 µmol/L, at 24 µM
MGC-803 [25] = assay: Induction of mitochondrial membrane potential depolarization in human MGC-803 assessed as necrotic cells measured at 24 micromol/L for 20 mins by JC-1 staining based flow cytometric analysis (reference value: 0.00%); format: functional; conditions: dose 24 µmol/L, at 24 µM
MGC-803 [26] = assay: Induction of apoptosis in human MGC-803 cells assessed as late apoptotic cells at 16 micromol/L for 48 hrs by annexinV-FITC/PI staining based flow cytometric analysis (reference value: 1.32%); format: functional; conditions: dose 16 µmol/L, at 16 µM

inhibition [9]: Dose-Dependent Effect | IC50 [11]: 3.82 µM | Activity [16]: Active | inhibition [23]: Dose-Dependent Effect | IC50 (HCT-116): 16.3 µM
SMILES: O=C(c1cccc(CN[C@@H]2C[C@H]2c2ccc(F)c(F)c2)c1)N1CCN(c2ccc(Cl)c(Cl)c2)CC1
Activity (MGC-803 [1]): Active | Activity (MGC-803 [2]): Active | Activity (MGC-803 [3]): 0.35% | inhibition (MGC-803 [4]): Active | Activity (MGC-803 [5]): Active | Activity (MGC-803 [6]): Active | Activity (MGC-803 [7]): 37.89% | viability at 8 µM (MGC-803 [8]): 91% | Activity (MGC-803 [10]): 64.13% | Activity (MGC-803 [12]): inactive | Activity (MGC-803 [13]): 0.32% | Activity (MGC-803 [14]): 31.69% | viability at 24 µM (MGC-803 [15]): 51.8% | Activity (MGC-803 [17]): Dose-Dependent Effect | Activity (MGC-803 [18]): 0% | Activity (MGC-803 [19]): Active | viability at 16 µM (MGC-803 [20]): 57.5% | Activity (MGC-803 [21]): 64.32% | viability at 24 µM (MGC-803 [22]): 1.28% | Activity (MGC-803 [24]): 74.6% | Activity (MGC-803 [25]): 0.12% | Activity (MGC-803 [26]): 10.43%
